From PubChem BioAssay AID1552 (Sanford-Burnham Center for Chemical Genomics, 2009) come the findings set out here.

Active and inactive are the calls of the source. No rule for the calls is given here.

Chain of Ubiquitin-conjugating enzyme E2 N (Homo sapiens) (P61088 whole entry, looked up): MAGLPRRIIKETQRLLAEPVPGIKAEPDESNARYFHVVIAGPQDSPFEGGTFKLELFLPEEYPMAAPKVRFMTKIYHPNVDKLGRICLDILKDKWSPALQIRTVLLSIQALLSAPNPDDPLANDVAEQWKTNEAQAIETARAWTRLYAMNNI

This test concerns the target Ubiquitin-conjugating enzyme E2 N (Homo sapiens) (UniProt P61088). Kind of test: NMR detection of UBE2N ligand binding – biophysical, purified protein (AID 1552). Conditions: NMR binding to purified UBE2N.
What is called Kd is the concentration at which binding is half-saturated. `CC1(C)CCC(C)(C)c2cc(C(=O)O)ccc21`: the Kd was > 4 mM (inactive).

For the compound `COc1cc(O)ccc1C(C)=O`, the Kd was > 4 mM (inactive).

`Cc1noc(C)c1C(=O)Nc1sc(C)c(C)c1C#N`: the Kd was > 4 mM (inactive).

With `COC1C(O)C(O[C@H]2CC[C@]3(C=O)C4C(CC[C@]3(O)C2)[C@@]2(O)CC[C@H](C3=CC(=O)OC3)[C@@]2(C)C[C@H]4OC(C)=O)OC(C)C1OC(C)=O` (stereo partly specified), the Kd was > 4 mM (inactive).

With `CC(=O)O[C@H]1CC[C@@]2(C)C(=CC(=O)C3C4CCC(C(C)CCCC(C)C)[C@@]4(C)CCC32)C1` (stereo partly specified), the Kd was > 4 mM (inactive).

Regarding `NC(=O)C1CCN(c2ncnc(N)c2[N+](=O)[O-])CC1`, the Kd was > 4 mM (inactive).

For the compound `COc1cc(O)c(C)c(O)c1`, the Kd is > 4 mM (inactive).

`Cc1nc(-c2ccc(C(=O)O)s2)cs1`: the Kd was > 4 mM (inactive).

Consider `CCCCCCCCCCCC[C@H](C(=O)O)[C@@H](C)C(=O)O`, for which the Kd is > 4 mM (inactive).

Turning to `Nc1nc(SCc2ccc3c(c2)OCCO3)n[nH]1`, the Kd was > 4 mM (inactive).

In the case of `CN(C)C(=S)Nc1ccc([N+](=O)[O-])cc1`, the Kd is > 4 mM (inactive).

Regarding `Cc1ccc(/C=C2/NC(=S)NC2=O)s1`, the Kd is > 4 mM (inactive).

On to `Cc1cc(=O)n2[nH]c(C)cc2n1`, for which the Kd is > 4 mM (inactive).

As to `CC(=O)NC(=S)Nc1ccc(C(C)=O)cc1`, the Kd is > 4 mM (inactive).

With `CC1(C)CC2C1CCC1(C)OC1CCC2(C)O` (stereo unspecified), the Kd was > 4 mM (inactive).

As for `CS(=O)(=O)CCCCN=C=S`, the Kd is > 4 mM (inactive).

As to `COC(=O)c1ccc2snnc2c1`, the Kd was > 4 mM (inactive).

On to `NC1=C(c2ccccc2)C(=O)c2ccccc21`, for which the Kd was > 4 mM (inactive).

`CC(C)CNc1cc(=O)n(C)c(=O)n1C`: the Kd is > 4 mM (inactive).

In the case of `CC1CCCN(C/C(O)=C(\C#N)c2nc3ccccc3[nH]2)C1` (stereo unspecified), the Kd was > 4 mM (inactive).

For `CC(CC(=O)NN)C1(O)CCCCC1` (stereo unspecified), the Kd is > 4 mM (inactive).

For `CCOC(=O)c1snnc1-c1ccccc1`, the Kd was > 4 mM (inactive).

In the case of `Nc1c(S(=O)(=O)c2ccccc2)csc1C(=O)O`, the Kd was > 4 mM (inactive).

In the case of `CNC(=O)c1ccccc1-c1ccccc1`, the Kd was > 4 mM (inactive).

For the compound `O=C(O)CCC(=O)c1cccc2ccccc12`, the Kd is > 4 mM (inactive).

`CCCCN1C(=O)N(C)C2NC(=O)NC21` (stereo unspecified): the Kd was > 4 mM (inactive).

For `Cc1ccn(S(=O)(=O)c2ccc(F)cc2)n1`, the Kd was > 4 mM (inactive).

For the compound `CC(=O)OCC(OC(C)=O)C(OC(C)=O)C(OC(C)=O)C(OC(C)=O)C(COC(C)=O)OC(C)=O` (stereo unspecified), the Kd is > 4 mM (inactive).

`NCc1cccc(-n2cccc2)c1`: the Kd was > 4 mM (inactive).

In the case of `Cc1ccc(C)n1/N=C1\NC(=O)CS1`, the Kd was > 4 mM (inactive).

Consider `O=C(O)CCN1CCOCC1`, for which the Kd is > 4 mM (inactive).

Consider `O=C(O)C1CN2CCC1CC2` (stereo unspecified), for which the Kd is > 4 mM (inactive).

In the case of `COc1cc([C@@H]2c3cc4c(cc3[C@H](O)[C@H]3COC(=O)[C@@H]23)OCO4)cc(OC)c1OC`, the Kd is > 4 mM (inactive).

As to `S=C1NC(=S)NC(c2ccc3c(c2)OCO3)N1`, the Kd was > 4 mM (inactive).

`Cn1[nH]c(C(F)(F)F)cc1=O`: the Kd is > 4 mM (inactive).

On to `Cc1ccc(N2C(=O)CCC2=O)cc1`, for which the Kd is > 4 mM (inactive).

With `CN1CCC(NC(=O)c2cccnc2)CC1`, the Kd was > 4 mM (inactive).

In the case of `CC(=O)Nc1cc(N2C(=O)C=CC2=O)ccc1Cl`, the Kd was > 4 mM (inactive).

For the compound `Cn1c(=O)c2c(ncn2CCNC2=NCCC2)n(C)c1=O`, the Kd was > 4 mM (inactive).

For the compound `Nc1nc(-c2ccc(O)cc2)cs1`, the Kd is > 4 mM (inactive).

On to `COc1ccc(NC(=O)c2ccc[n+]([O-])c2)cc1`, for which the Kd is > 4 mM (inactive).

Consider `COc1c(O)cc(O)cc1O`, for which the Kd was > 4 mM (inactive).

Regarding `OC1CCN(c2nccc(C(F)(F)F)n2)CC1`, the Kd is > 4 mM (inactive).

With `Oc1ccc(-c2n[nH]c(=S)n2Cc2ccco2)cc1`, the Kd was > 4 mM (inactive).

With `Fc1ccc(CN2CCCNCC2)cc1`, the Kd was > 4 mM (inactive).

Regarding `Cc1cc(C(=O)N2CCOCC2)c(C)o1`, the Kd was > 4 mM (inactive).

Take `CN(C)C(=O)Nc1ccc(F)cc1F`: the Kd is > 4 mM (inactive).

For the compound `Cc1nnsc1C(=O)Nc1ccccc1[N+](=O)[O-]`, the Kd is > 4 mM (inactive).

With `COc1cc(OC)c2ccc(=O)oc2c1`, the Kd is > 4 mM (inactive).

For the compound `CC1(C)C=Cc2cc3ccc(=O)oc3cc2O1`, the Kd was > 4 mM (inactive).

For the compound `COC(=O)c1cccs1`, the Kd is > 4 mM (inactive).

Turning to `NS(=O)(=O)c1ccc(NC(=O)/C=C\C(=O)O)cc1`, the Kd was > 4 mM (inactive).

As to `Cc1cc(N(CN2CCCC2=O)C(=O)c2ccccc2)no1`, the Kd is > 4 mM (inactive).

Take `CCN(CC)S(=O)(=O)c1cccc2nsnc12`: the Kd is > 4 mM (inactive).

For `Cc1c(CO)cnn1-c1ccc(F)cc1`, the Kd is > 4 mM (inactive).

As for `O=C(c1ccccc1)N1CCOCC1`, the Kd is > 4 mM (inactive).

Take `COC(CC(=O)O)c1nc2ccccc2s1` (stereo unspecified): the Kd is > 4 mM (inactive).

Regarding `NC(=O)c1ccc(N=Cc2ccc[nH]2)cc1`, the Kd was > 4 mM (inactive).

Take `Cc1cc(NS(=O)(=O)Cc2ccccc2)no1`: the Kd was > 4 mM (inactive).

In the case of `Cc1cc(C)c(-c2cc(C(F)(F)F)no2)c(=O)[nH]1`, the Kd is > 4 mM (inactive).

For the compound `OCc1ccccc1N1CCOCC1`, the Kd is > 4 mM (inactive).

Take `COc1ccccc1-c1noc(-c2ccco2)n1`: the Kd was > 4 mM (inactive).

As for `Cc1nc(SCC(=O)c2c[nH]c3ccccc23)n[nH]1`, the Kd is > 4 mM (inactive).

Turning to `CC(C)NC(=O)c1cc(-n2cnnc2)ccc1Cl`, the Kd is > 4 mM (inactive).

As to `CC(=O)Nc1ccc(C(=O)n2nc(C)cc2C)cc1`, the Kd was > 4 mM (inactive).

Take `COc1cc(OC)cc(-c2nc(N)n[nH]2)c1`: the Kd is > 4 mM (inactive).

On to `OCc1ccc2nsnc2c1`, for which the Kd was > 4 mM (inactive).

For the compound `O=C(Nc1cnc2ccccn2c1=O)c1ccc(F)cc1`, the Kd was > 4 mM (inactive).

On to `CS(=O)(=O)Nc1ccccc1C(=O)c1ccccc1`, for which the Kd was > 4 mM (inactive).

As to `O=S(=O)(Cc1ccccc1Cl)Nc1ccccn1`, the Kd was > 4 mM (inactive).

Consider `O=C1C2C3C=CC(C3)C2C(=O)N1c1nccs1` (stereo unspecified), for which the Kd is > 4 mM (inactive).

Consider `CCSc1nc2ccccc2n1CC(N)=O`, for which the Kd was > 4 mM (inactive).

In the case of `NC(=O)c1ccccc1N=Cc1ccco1`, the Kd is > 4 mM (inactive).

For `CC1=C(C(N)=O)C(c2cccs2)C(C(N)=O)=C(C)N1`, the Kd is > 4 mM (inactive).

On to `Cc1cc(Cl)ccc1NC(=O)C(N)=O`, for which the Kd was > 4 mM (inactive).

For `COc1ccc(C2CC(=O)NN2)cc1OC1CCCC1` (stereo unspecified), the Kd was > 4 mM (inactive).
